“Also recorded” adds a separate entry of the source.
Experiments:
[1] = in vivo; conditions: male, C57BL/6, mouse, in vivo, sc, 6 mg/kg
Experimental: Pharmacokinetics and toxicological studies
Male C57BL/6 mice, each weighing 23.4–25.4 g, were quarantined for 1 week before drug treatment. Compounds dissolved in 100% saline were individually given to mice (n = 3) subcutaneously (6 mg/kg; nonfasted mice). Blood samples were collected via cardiac puncture at defined time points (0 (immediately before dosing), 0.03, 0.08, 0.25, 0.5, 1, 2, and 4 h after dosing) and then stored at −80 °C. The volume of the dosing solution given was 100 µL for each mouse. The plasma samples were analyzed by liquid chromatography– tandem mass spectrometry (LC–MS/MS), and the data were calculated by a standard noncompartmental method using the Kinetica software program (InnaPhase). […]

[2] = system: human liver cytochrome P450 isozymes (CYP 1A2, 2C9, 2C19, 2D6, 2E1, 3A4); conditions: 100 μM; 1A2, 2C9, 2C19, 2D6, 2E1, and 3A4 isozymes
Excerpt: The effects of BPRCX807 on the activity of six specific human liver cytochrome P450 isozymes (CYP 1A2, 2C9, 2C19, 2D6, 2E1, 3A4) expressed in baculovirus-infected insect cell supersomes were studied. The reactions used to measure the activity of these enzymes

[3] = Metabolic stability in liver microsomes; assay type: in vitro ADME; conditions: mouse, rat, dog, and human
Excerpt: Figure S4. The metabolic stabilities of BPRCX807 in liver microsomes. BPRCX807 is […]

[4] = system: orthotopic HCA-1 tumors; assay: Orthotopic HCA-1 HCC model; assay type: in vivo, C3H mice; conditions: for Overall survival: n = 8
Experimental: (§1) In vivo hepatocellular carcinoma treatment studies […]
(§2) mouse PD-1 (200 µg/mouse; BioXcell, BE0146). The therapeutic efficacy and the changes in immune cells were analyzed after two weeks of treatment. The tumor volume was calculated with the following formula: volume = width × length × height/2. […]
Hematoxylin and Eosin staining
Lung tissue was cut into small pieces and fixed in 4% PFA (in PBS) overnight before being embedded in paraffin wax. The sections were then stained with hematoxylin and eosin (H&E) and observed with an inverted microscope (IX83, Olympus, Japan).
HCA-1 tumor-bearing mice were anesthetized, perfused via intracardiac injection with PBS and then sacrificed. Tumor tissues were collected and harvested in enzyme-containing DMEM cell culture medium (1.5 mg/mL of collagenase type 1A and hyaluronidase; Sigma).
The tissues were cut and ground into smaller pieces and then digested for 1 h at 37 °C to form suspensions of single tumor cells. The suspensions were filtered through a 70-µm cell strainer (Corning, Manassas, VA), and the cells were then incubated with rat anti-mouse CD16/CD32 mAbs to block Fc receptors. After washing 3 times and resuspending in cold flow buffer (1% BSA, 0.1% NaN3 in PBS), the single-cell suspensions were incubated with monoclonal anti-mouse F4/80-PE (eBiosciences, San Diego, CA), 7-AAD, CD3e-APC, CD8a-PE-Cy7, CD45-FITC, CD4-PE (BD Biosciences, East Rutherford, NJ), CD86-APC-

[5] = system: orthotopic JHH-7 tumors; assay: Orthotopic JHH-7 HCC model; assay type: in vivo, nude mice; conditions: combination with sorafenib (40 mg/kg/d, oral); BPRCX807 15 mg/kg/d SC minipump
Experimental: as §1, §2

[6] = system: JHH-7 cells; assay: Western blot of phospho-ERK and phospho-AKT after CXCL12 stimulation; assay type: cell-based, human; conditions: 10 µM, CXCL12 stimulation
Experimental: Western blotting was conducted by following standard procedures. HCA-1 or JHH-7 cells (10^5 cells per well) were seeded in 12-well plates (Costar, IL), incubated for 12 h and […]
containing (100 ng/mL) serum-free medium. After 24 h, the cells were lysed in RIPA buffer on ice for 30 min, and samples were collected and loaded with 4× Laemmli Sample buffer (Bio-Rad, Hercules, CA). The samples were separated on a 10% SDS-PAGE gels and transferred to PVDF membranes. After blocking with skim milk for 1 h, the membranes were incubated at 4°C overnight with primary antibodies against p -AKT, AKT, p-ERK, ERK (Cell Signaling, Danvers, MA) or β-actin (Sigma-Aldrich, St. Louis, MO) before incubation with HRP-conjugated secondary antibodies (Antibodies Inc., Davis, CA) for 1 h. […]
Total RNA was extracted from HCA-1 cells using the RNeasy Mini Kit (Qiagen, CA, USA). cDNAs were synthesized using the High-Capicity cDNA Reverse Transcription Kit […]
Biosystems, CA, USA) on a QPCR System. The comparative threshold cycle method was used to calculate fold change in gene expression, which was normalized to β-actin as a […]

[7] = in vivo; conditions: ICR, mouse, sc
[8] = alone or combined with sorafenib

Cc1cc(NC2CCN(C(=O)CCNCC(=O)O)CC2)nc(NCc2nc(CCCNCCCNC3CCCCC3)co2)n1 [BPRCX807]
AUC(0-t) [1]: 16500 ng·h/mL
Cmax [1]: 18800 ng/mL
half-life [1]: 1 h
CYP450 inhibition [2]: no inhibitory effects; also recorded: No inhibition
Metabolic stability in liver microsomes [3]: metabolically stable
Lung metastasis (number of lung nodules) ([4]; BPRCX807 combined with sorafenib, day 24): significantly suppress lung metastasis
Proportion of M1-like CD86+ TAMs in tumors [4, 8]: increasing the proportion
Proportion of M2-like CD206+ TAMs in tumors [4, 8]: decreasing
Tumor size reduction vs. control ([4]; combination of BPRCX807 (15 mg/kg/d SC) with anti–PD-1 (200 μg/mouse IP), day 24): more than 95%
Lung metastasis ([4]; combination with anti–PD-1): significantly prevented
Overall survival ([4]; combination with anti–PD-1 vs either alone): significantly prolonged
Tumor volume reduction ([4]; combination with sorafenib (40 mg/kg/d, oral), BPRCX807 15 mg/kg/d SC minipump): roughly 85%
Overall survival ([4]; combination with sorafenib vs BPRCX807 (P = 0.0123) or sorafenib (P = 0.0053) alone): significantly extended
F4/80+ TAMs infiltration into tumor (flow cytometry) ([4]; treatment alone): significantly decreased
CD8+ T cell infiltration into tumors ([4]; treatment alone, compared to no treatment): moderately increased
Intratumoral mean vessel density (MVD, CD31+ staining) ([4]; treatment alone, day 24): significantly decrease intratumoral MVD
Lung metastasis (number of lung nodules) ([4]; treatment alone, day 24): reduced; also recorded: significantly suppress lung metastasis
Tumor growth ([4]; treatment alone, immunotherapy study, day 24): moderately inhibiting tumor growth
Tumor volume reduction [5]: ~77%
CXCR4/CXCL12-triggered ERK and Akt activation [6]: suppress CXCR4/CXCL12-triggered ERK and Akt activation more significantly than its counterparts
MTD [7]: 75 mg/kg
